{"source": "patent US20150328109A1", "about": "“DERMAL COMPOSITIONS CONTAINING UNNATURAL HYGROSCOPIC AMINO ACIDS” (MEDPHARM LIMITED, priority 2012, published 2015)", "key": {"[1]": {"assay": "Deliquescence relative humidity (DRH) of a saturated solution in a sealed vessel at 32° C.", "format": "physicochemical", "conditions": "saturated solution in water (1 mL), 24 hours", "protocol": "This experiment was to measure the deliquescence relative humidity (DRH) caused by a saturated amino acid solution in a sealed vessel at 32° C.; the lower the DRH, the greater the water holding capacity of the solution measured. Deliquescence relative humidity is the relative humidity at which the compound deliquesces, i.e. the relative humidity in which the compound absorbs so much water that it dissolves within the absorbed water.\nThe apparatus is maintained at 32° C. The temperature of 32° C. was chosen for being the temperature of outer stratum corneum. As the amino acids are to eventually be delivered to the outer layer of the skin, then the water holding capacity of these compounds at 32° C. is important.\nThe saturated solution is prepared as above by adding the amino acid to water (1 mL, 32° C.), whilst swirling. The total amino acid is weighed before adding to the water and the remaining amino acid so that the mass of compound used can be determined. The saturated solution (1 mL, 32° C.) is then transferred into the vial, again because of partial molar volume causing a change in volume by the addition of the amino acid to the water.\nThe temperature and % RH (% Relative Humidity) shown on the thermo-hygrometer are recorded every 30 minutes until the % RH remains constant. The temperature confirms that the temperature experienced by the sample is 32° C."}, "[2]": {"system": "RHE tissues", "conditions": "cited from earlier work"}, "[3]": {"assay": "In vitro permeation of diclofenac diethylamine (DDEA) through epidermal membrane in Franz type diffusion cells after amino acid pre-treatment", "format": "in vitro ADME, Human", "conditions": "maximal enhancement of the drug's permeation by amino acid pre-treatment", "protocol": "(§1) Acyclovir (ACV), metronidazole and diclofenac diethylamine (DDEA) were analysed using HPLC, using of a Waters Alliance Separations Module and Waters detector. The temperature of the column and samples were maintained at 45±2° C. and 5.0±2° C., respectively. A Kinetix™ C-18 (Phenomenex, USA) column (150 mm×4.6 mm 5 μm particle size) with a guard column (Phenomenex USA, C-18 4.0×3.0 mm) was employed as the stationary phase. The mobile phase was three part; mobile phase A, water; mobile phase B, methanol; and mobile phase C, 10 mM ammonium phosphate buffer pH 2.5. The mobile phase was run using a gradient flow (Table 2) with a flow rate of 0.8 mL/min. Samples were run for 12 minutes with an injection volume of 10 μL. Acyclovir, metronidazole and DDEA were processed at a wavelength of 276 nm, with approximate retention times of 4.7, 6.5, and 8.7 min, respectively. Calibration curves were constructed from a series of standards prepared by serial dilution in conjunction with separately prepared quality controls. […] Data were recorded and analysed using Empower Pro^3 Software. […]\n(§2) Three experiments were performed, one for each API (Acyclovir, metronidazole and DDEA). […] The integrity of the epidermal membrane was assessed using electrical resistance to ensure the epidermal membrane was intact. […] Samples were analysed using HPLC and the level of each API that had permeated was quantified."}, "[4]": {"conditions": "cited from earlier work"}, "[5]": {"system": "RHE tissues", "assay": "RHE irritation assessment Method 2: Mattek's MTT effective time (ET-50) assay", "format": "cell-based, human", "text": "Method 1 was used to investigate the potential for alpha-hydroxylglycine (α-H-G) and L-homoserine (L-h-S) to cause skin irritation. The protocol is primarily designed and validated for single compounds rather than solutions. Therefore to provide further insight into the potential of N-hydroxyserine and N-hydroxylglycine to cause skin irritation a second protocol was investigated using Mattek's MTT effective time (ET-50) assay which is designed to test mixtures of compounds. In addition two commercially available amino acid related compound (L-serine and glycine) were selected and tested as comparators for N-hydroxyserine and N-hydroxylglycine. […] As a general guideline, the following groupings can be used in assigning expected in vivo irritancy responses based on the ET-50 results obtained: The irritation assessment of the solutions was performed using the protocol described below. Each of the test solutions; […] Damaged tissues were discarded. • (iii) The tissue were transferred into the assay medium and incubated at 37° C., 5% CO2 until the application of the test solutions; […] The working MTT solution was prepared using the following procedure: • (i) MTT concentrate was removed from the freezer and allowed to thaw. The concentrate was diluted with the MTT diluent solution (1 mL of concentrate to 4 mL of MTT diluent solution). • (ii) MTT solution from Step (i) was centrifuged at a g-force of 300 for 5 min to remove any particulates. • (iii) The supernatant of the MTT solution from Step (ii) was stored in the dark at 4° C. for a maximum period of 24 h and used as required. […] The plates were incubated for 3 h (+/−5 min) at 37° C., 5% CO2 and 95% humidified atmosphere. • (vi) The treated tissues were subsequently transferred into a new plate filled with 1 mL of extractant solution. • (vii) The plates were sealed using Parafilm® to stop evaporation and protected from light using foil before extract at 2-8° C. to minimise evaporation. • (viii) Following extraction the RHE tissue were removed from the wells and an additional 1 mL of extractant solution was added. Using a pipette the extraction solution was mixed and made visually homogenous. • (ix) The solution from Step (viii) was transferred in to n=3 wells (200 μL per well) using an automatic pipette of a 96 well plate and the optical density was measured at a wavelength of 570 nm."}, "[6]": {"assay": "Snake study: water uptake into snake skin after treatment with amino acid solution", "set-up": "species or system Elaphe guttata, the American corn snake", "conditions": "24 h treatment with 1.33M amino acid solution, dried, then 40% RH", "method": "• All experiments were performed in triplicate (i.e. three separate solutions, three pieces of skin, one per solution). […] Each piece was weighed and placed directly into one the of the amino acid solutions, one piece of snake skin per solution. • After 1 hour, the snake skin was removed from the solution and blotted dry on filter paper. The weight of the snake skin was recorded before the same snake skin was returned to the amino acid solution. • After an additional 23 hours (24 hours in total), the snake skin was again blotted dry on filter paper and weighed. • The snake skin, now having absorbed the test amino acid, was then placed in a vacuum desiccator over silica (0% RH) for 48 hours before being weighed.\n• A 10% w/w concentration solution of each compound is made by stirring the compound (100 mg) in water (1 mL). Three separate solutions of each compound are made separately so that the experiment can be carried out in triplicate simultaneously. […] The weight of the snake skin is recorded before the same snake skin is returned to the same compound solution. • After an additional 23 hours (24 hours in total), the snake skin is again blotted dry on filter paper and weighed. • The snake skin is then placed in a vacuum desiccator over silica (0% relative humidity (RH)) for 48 hours before being weighed. […]"}, "[7]": {"system": "RHE tissues", "assay": "RHE irritation assessment Method 1: SkinEthic Skin Irritation Test-42 bis assay (MTT), plus 24 h contact time", "format": "cell-based, human", "conditions": "42 min and 24 h exposure, 5 and 1% w/v α-H-G, 10 and 1% w/v L-h-S in water", "text": "The purpose of this experiment was to investigate the potential of alpha-hydroxyglycine (α-H-G) and L-homoserine (L-h-S) to cause skin irritation. The method was based on the validated SOP for the “The SkinEthic Skin Irritation Test-42 bis assay” in accordance to OECD guideline Test No. 439: In Vitro Skin Irritation. The protocol is provided in Section 1.2. Further details on the method can be found in the SkinEthic™ RHE SOP, Version 2.1 (July 2009), SkinEthic skin irritation test-42 bis test method for the prediction of acute skin irritation of chemicals: 42 minutes application+42 hours post-incubation. Available at: [http://ecvam.jrc.ec.europa.eu].\nIn addition, a further experiment was performed where the contact time of the test solution with the tissue was increased to 24 h. Following which point an MTT assay was used to determine the tissue viability and the test solutions potential to cause irritation.\nThe following steps were completed on receipt of the tissues: • (i) Wells of 6-well plates were filled with 1 mL growth culture medium. • (ii) Tissue were removed from their packaging, cleaned to remove the transport agarose and inspected for signs of damage; damaged tissues were discarded. • (iii) The tissue were transferred into the growth culture medium then incubated at 37° C., 5% CO2 until application of the test solution.\n1.2.1.1.6 Applications of 5 and 1% w/v α-H-G and 10 and 1% w/v L-h-S and Controls • (i) 16 μL±0.5 μL of the test solutions (5% w/v α-hydroxyglycine (α-H-G) in water, 1% w/v α-hydroxyglycine (α-H-G) in water, 10% w/v L-homoserine (L-h-S) in water, 1% w/v L-homoserine (L-h-S) in water) and negative (PBS) and positive (5% SDS) controls were dispensed onto the top of the epidermal tissue, using positive displacement pipette. […]"}, "[8]": {"assay": "In vitro permeation of metronidazole through epidermal membrane in Franz type diffusion cells after amino acid pre-treatment", "format": "in vitro ADME, Human", "conditions": "maximal enhancement of the drug's permeation by amino acid pre-treatment", "protocol": "as §1, §2"}, "[9]": {"conditions": "mass used printed beside the name"}}, "note": "Read-outs that look alike come from different tables or passages of the source.", "data": [{"compound": "C[C@H](N)C(=O)O", "note": "[Alanine]", "values": [{"measurement": "DRH", "setting": "[1]; [9]", "result": 83.1, "unit": "%"}]}, {"compound": "NC(N)=O", "note": "[Urea]", "values": [{"measurement": "DRH", "setting": "[1]; [9]", "result": 75.03, "unit": "%"}]}, {"compound": "Triton X-100 [1% Triton X-100]", "values": [{"measurement": "ET-50 (hrs), general guideline examples", "setting": "[2]", "result": "4-12 moderate to mild hrs"}]}, {"compound": "O=C(O)Cc1ccccc1Nc1c(Cl)cccc1Cl", "note": "[Diclofenac diethylamine]", "values": [{"measurement": "ER (drug absorption enhancement factor)", "setting": "[3]", "result": 19}, {"measurement": "Log P", "setting": "[4]", "result": 0.85}]}, {"compound": "NC(O)C(=O)O", "note": "(stereo not drawn) [α-hydroxyglycine, 2-Amino-2-hydroxyacetic acid]", "values": [{"measurement": "DRH", "setting": "[1]; [9]", "result": 79.73, "unit": "%"}, {"measurement": "DRH", "setting": "[1]; mass used printed beside the name, listed as Hydroxyglycine", "result": 79.7, "unit": "%"}, {"measurement": "ET-50 (exposure time to reduce viability to 50% of the control)", "setting": "[5]; 10% w/v N-H-S, 1% w/v N-H-G in water, dosing periods 2, 6 and 24 h", "result": "< 24", "unit": "h"}, {"measurement": "expected in vivo irritancy from ET-50", "setting": "[5]; 10% w/v N-H-S, 1% w/v N-H-G, 10% w/v L-Serine, 10% w/v Glycine in water", "result": "non-irritant"}, {"measurement": "average percentage weight increase after 24 h at 40% RH", "setting": "[6]", "result": "particularly advantageous properties"}, {"measurement": "skin irritation potential (viability below 50% of negative control = irritant)", "setting": "[7]; listed as alpha-hydroxyglycine", "result": "non-irritants"}, {"measurement": "skin irritation potential (viability below 50% of negative control = irritant)", "setting": "[7]; listed as α-H-G", "result": "non-irritating"}]}, {"compound": "O=[N+]([O-])[O-].O=[N+]([O-])[O-].[Zn+2]", "note": "[Zinc Nitrate]", "values": [{"measurement": "DRH", "setting": "[1]; [9]", "result": 45.8, "unit": "%"}]}, {"compound": "NC(=O)C[C@H](N)C(=O)O", "note": "[Asparagine]", "values": [{"measurement": "DRH", "setting": "[1]; [9]", "result": 91.2, "unit": "%"}]}, {"compound": "N[C@@H](CC(=O)O)C(=O)O", "note": "[Aspartic acid]", "values": [{"measurement": "DRH", "setting": "[1]; [9]", "result": 100.0, "unit": "%"}]}, {"compound": "O=[N+]([O-])O", "note": "[conc. Nitric acid, Nitric acid]", "values": [{"measurement": "ET-50 (hrs), general guideline examples", "setting": "[2]; guideline groupings of the assay", "result": "<0.5 strong/severe, possible corrosive hrs"}]}, {"compound": "N[C@H](CO)C(=O)O", "note": "[D-serine]", "values": [{"measurement": "DRH", "setting": "[1]; D-serine 0.95 g", "result": 85.40, "unit": "%"}, {"measurement": "DRH", "setting": "[1]; D-serine 1.2 g", "result": 82.13, "unit": "%"}]}, {"compound": "N[C@@H](CS)C(=O)O", "note": "[Cysteine]", "values": [{"measurement": "DRH", "setting": "[1]; [9]", "result": 89.6, "unit": "%"}]}, {"compound": "NCC(=O)O", "note": "[Glycine, reference compound]", "values": [{"measurement": "DRH", "setting": "[1]; [9]", "result": 79.13, "unit": "%"}, {"measurement": "expected in vivo irritancy from ET-50", "setting": "[5]", "result": "non-irritants"}, {"measurement": "impact on the viability of the RHE tissues", "setting": "[5]", "result": "no significant impact"}]}, {"compound": "N[C@@H](CO)C(=O)O", "note": "[L-serine, reference compound]", "values": [{"measurement": "DRH", "setting": "[1]; [9]", "result": 82.53, "unit": "%"}, {"measurement": "expected in vivo irritancy from ET-50", "setting": "[5]", "result": "non-irritants"}, {"measurement": "impact on the viability of the RHE tissues", "setting": "[5]", "result": "no significant impact"}]}, {"compound": "O=C(O)[C@@H]1CCCN1", "note": "[L-Proline]", "values": [{"measurement": "DRH", "setting": "[1]; [9]", "result": 44.6, "unit": "%"}]}, {"compound": "C[C@@H](O)[C@H](N)C(=O)O", "note": "[Threonine]", "values": [{"measurement": "DRH", "setting": "[1]; [9]", "result": 86.0, "unit": "%"}]}, {"compound": "Cc1ncc([N+](=O)[O-])n1CCO", "note": "[Metronidazole]", "values": [{"measurement": "Log P", "setting": "[4]", "result": "−0.02"}, {"measurement": "ER (drug absorption enhancement factor)", "setting": "[8]", "result": 15}]}]}
